Values of other authors in US20070104788A1, “Once-daily administration of central nervous system drugs” (priority 2005, published 2007).
Where two headings read alike, the source gives them in different places.

Details: for half life: background statement

CN(C)C[C@H]1CCCC[C@]1(O)c1cccc(O)c1 [Ml]
half life: 7.4 h

COc1cccc([C@@]2(O)CCCC[C@H]2CN(C)C)c1 (racemic) [tramadol]
half life: 6.3 h
Half-Life Elimination (metabolite of tramadol): 7 h
Half-Life Elimination (parent drug): 5 to 6 h

COc1ccc2c3c1O[C@H]1C(=O)CC[C@@]4(O)[C@@H](C2)N(C)CC[C@]314 [oxycodone]
Half-Life Elimination (parent drug): 0.4 h

Cc1cc(C)cc(OCC2CNC(=O)O2)c1 (stereo not shown) [metaxolone]
Half-Life Elimination (after a meal): 2.4 ± 1.2 (after a meal) hours
Half-Life Elimination (fasting): 9.2 ± 4.8 (fasting) hours
